Experimental data from patent US6680025B2, “Device and method for photoactivation” (Cerus Corporation, priority 1989, dated 2004).

Assays:
calf thymus DNA = assay: Equilibrium dialysis dark binding (association constant); details: for Ka: 4° C., five days, dark, isopsoralen:DNA base pair 1:15
Method: Equilibrium Dialysis was used to determine the association (“dark binding”) constants of AMIP, AMDMIP and MIP with calf thymus DNA. The tritium labelled isopsoralens were used for the experiment. The method was a modification of that of Isaacs et al. Biochemistry 16, 1058-1066 (1977).
Spectrapor 2 dialysis tubing (Spectrum) was pre-treated by boiling in saturated sodium bicarbonate then rinsed thoroughly with double distilled water. Calf thymus DNA (Sigma) was prepared at a concentration of 50 μg/ml in 1×TE. The samples were prepared by placing 1.0 ml of the DNA solution inside the bag and using enough isopsoralen to provide an isopsoralen:DNA base pair ratio of 1:15. The samples were prepared with the tritiated isopsoralen (“Drug”) placed either inside or outside of the dialysis bag (each sample was placed in a scintillation vial containing a small magnetic stir bar). The samples were stirred at 4° C. for five days in the dark. After this period the bags were removed, opened, and the radioactivity inside and outside the bag determined by scintillation counting. The concentration of the DNA was determined by measuring optical density at 260 nm. The […] constant (Ka) was calculated from this information (Table 9). Preparing the samples in duplicate with the isopsoralen both inside and outside the dialysis bag provided a check that the system had come to equilibrium at the end of the dialysis period (the amount of isopsoralen inside and outside the bag at equilibrium should be, and was, the same in both cases).
The association constant, Ka is defined here as [formula]
for the reaction P+DNA P:DNA where P=free drug in solution, DNA=DNA binding site for the drug, and P:DNA=drug associated with the DNA. The following summarizes the Ka values determined for the compounds: […]

E. coli DNA Polymerase = assay: Primer extension on monoadducted 71-mer, E. coli DNA polymerase; type: biochemical; details: 37° C., 0, 5 or 15 minutes
T4 polymerase = assay: Primer extension on monoadducted 71-mer, T4 polymerase; type: biochemical; details: 37° C., 0, 5 or 15 minutes
Text: The sequences that are presented in FIG. 26 describe several oligonucleotides that are used in the synthesis of either a normal 71-mer or the identical 71-mer containing a site-specifically placed psoralen or isopsoralen monoadduct. The 71-mer is a sub-sequence of the Human Immunodeficiency Virus (HIV) sequence. (An HIV DNA system is described in a co-pending application, Serial No. 225,725.) SK-39 is a primer oligonucleotide that is complementary to the 3′ end of the 71-mers. This primer oligonucleotide can be extended on the 71-mer template to make a complementary strand of the 71-mer.
Preparation of 71-mers which contain site-specific monoadducts involves 1) preparation of different 15-mer monoadducts from the same unmodified 15-mer (HRI-42), and 2) ligation of the different 15-mer monoadducts to the same 56-mer “extender oligonucleotide” (HRI 102) using a 25-mer oligonucleotide (HRI-45) as a splint. The arrows in FIG. 27 indicate the direction of synthesis, while the monoadduct is indicated by a short line that is perpendicular to the oligomer. While each of the 71-mer monoadducts contains the adduct at a base position that is greater than 56 bases from the 5′ end, the precise position of the monoadduct is not meant to be indicated.
To prepare the 15-mer adducts, the 15-mer was incubated with a complementary 10-mer along with psoralen or isopsoralen under hybridization conditions. The mixture was then irradiated to provide the monoadducted 15-mer. While the invention is not dependent on knowing the precise mechanism of coupling, it has generally been believed that the 10-mer directs the isopsoralen to a single TpA site within the double-stranded helix formed by the 10-mer/15-mer hybrid. […]
To provide highly purified 71-mers which contain a single monoadduct, it was necessary to provide highly purified 15-mer monoadduct prior to the ligation step. […] Separation of 15-mer monoadduct from unmodified 15-mer was readily accomplished by PAGE (while the same technique is not effective for separation of the corresponding unmodified 71-mer and monoadducted 71-mer sequences). […]

Reverse Transcriptase = assay: Primer extension on monoadducted 71-mer, reverse transcriptase; type: biochemical; details: 37° C., 0, 5 or 15 minutes
[1] = tritiated drug placed inside dialysis bag
[2] = tritiated drug placed outside dialysis bag

Compound | Ka (calf thymus DNA; [1]) | Ka (calf thymus DNA; [2]) | block of primer extension by 71-mer monoadduct (E. coli DNA Polymerase) | block of primer extension by 71-mer monoadduct (T4 polymerase) | block of primer extension by 71-mer monoadduct (Reverse Transcriptase) | Ka (DNA association constant) relative to AMDMIP (calf thymus DNA)
Cc1cc2occc2c2oc(=O)ccc12 [MIP, 5-Methylisopsoralen] | 9.08 × 10^3 | 2.07 × 10^3 | not complete stops | complete stops | complete stops | 
Cc1oc2ccc3c(C)cc(=O)oc3c2c1CN [AMDMIP, 4′-Aminomethyl-4,5′-dimethylisopsoralen] | 7.66 × 10^4 | 1.07 × 10^5 | complete stop | complete stop | complete stop | 
NCc1cc2occc2c2oc(=O)ccc12 [AMIP, 5-Aminomethylisopsoralen] | 2.96 × 10^4 | 2.21 × 10^4 | not complete stops | complete stops | complete stops | 28%
